The test system of this test is aMCI subjects. The test can be described thus: Benton Visual Retention Test. In kind it is in vivo, human. The note with it: 125 mg twice a day for two weeks. On the procedure: A within-subjects trial of 8 weeks duration, involving 17 amnestic MCI (aMCI) subjects and 17 age-matched controls with a low dose treatment of levetiracetam is conducted. During the course of the study, each aMCI subject receives both drug and placebo treatments separately in two periods of two weeks each, with the order of treatments among different aMCI subjects counterbalanced (see FIG. 7). Age-matched control subjects treated with placebo serve as a further control. Cognitive testing and fMRI imaging data are obtained from the subjects after each two week period of drug/placebo treatment.
All participants undergo neuropsychological evaluation at the time of assessment for treatment efficacy (Visits 1 and 2), as well as at the Baseline Visit. […]
As described above, the drug treatment period is the two weeks preceding Visit 1 or 2 (with the two week period preceding the other Visit being the placebo phase). For the subjects receiving the drug treatment, half a scored 250 mg tablet of levetiracetam is used to achieve a dose of […], which is approximately 3.6 mg/kg/day (assuming an average adult human weight of 70 kg).

The structures appear in SMILES notation.

For `CC[C@@H](C(N)=O)N1CCCC1=O` [levetiracetam, (2S)-2-(2-oxopyrrolidin-1-yl) butanamide], the “performance in Benton Visual Retention Test” value was “fail to rescue performance”.
